Test results taken from paper PMC11901902, “Design, Synthesis, and Cytotoxicity Evaluation of Novel Indolin-2-One Based Molecules on Hepatocellular Carcinoma HepG2 Cells as Protein Kinase Inhibitors” (Molecules, 2025).
Each block holds one compound with its values, some of them ahead of it.

How the values were obtained:
HepG-2 cells = assay: MTT cytotoxicity assay on HepG-2 cells; type: cell-based, human; conditions: Homo sapiens, HepG2; for viability at 1.25 µM: HepG-2, 1.25 µM; for viability at 1.25 µM / viability at 2.5 µM / viability at 5 µM / viability at 10 µM / viability at 20 µM / viability at 40 µM / viability at 80 µM / viability at 160 µM: Table S1; for viability at 2.5 µM: HepG-2, 2.5 µM; for viability at 5 µM: HepG-2, 5 µM; for viability at 10 µM: HepG-2, 10 µM; for viability at 20 µM: HepG-2, 20 µM; for viability at 40 µM: HepG-2, 40 µM; for viability at 80 µM: HepG-2, 80 µM; for viability at 160 µM: HepG-2, 160 µM; for IC50: MTT, 24 h treatment, mean of three experiments ± SEM
Procedure: (§1) Cytotoxic activity of the synthesized compounds was evaluated against HepG-2 and MCF-7 cancer cell lines using the MTT assay. The tested cell lines were obtained from the American Type Culture Collection (ATCC, […], USA) through the Tissue Culture Unit, The Egyptian Organization for Biological Products and Vaccines (Vacsera, Giza, Egypt). Indirubin, chemicals, and solvents were purchased from Sigma-Aldrich (St. Louis, MO, USA). The cells were grown on RPMI-1640 medium supplemented with 10% inactivated fetal calf serum and 50 µg/mL gentamycin. The cells were maintained at 37 °C in a humidified atmosphere with 5% CO2 and were sub-cultured two to three times per week. For antitumor assays, the tumor cell lines were suspended in the medium at concentration 5 × 10^4 cell/well in Corning® 96-well tissue culture plates (Corning, Corning, NY, USA), then incubated for 24 h. The tested molecules were then added to 96-well plates (six replicates) to achieve six concentrations for each compound. Six vehicle controls with media or 0.5% DMSO were run for each 96-well plate as a control. After incubating for 24 h, the numbers of viable cells were determined by the MTT test. Briefly, the media was removed from the 96 well plate and replaced with 100 µL of fresh culture RPMI 1640 medium without phenol red then 10 µL of the 12 mM MTT stock solution (5 mg of MTT in 1 mL of PBS) to each well including the untreated controls. The 96-well plates were then incubated at 37 °C and 5% CO2 for 4 h. An 85 µL aliquot of the media was removed from the wells, and 50 µL of DMSO was added to each well, mixed thoroughly with the pipette, and incubated at 37 °C for 10 min. Then, the optical density was measured at 590 nm with the microplate reader (SunRise, TECAN, Inc., Morrisville, NC, USA) to determine the number of viable cells, and the percentage of viability was calculated as […], where ODt is the mean optical density of wells treated with the tested sample and ODc is the mean optical density of untreated cells. The relation between surviving cells and drug concentration was plotted to obtain the survival curve of each tumor cell line after treatment with the specified compound. […] Each concentration was repeated four times.

MCF-7 cells = assay: MTT cytotoxicity assay on MCF-7 cells; type: cell-based; conditions: Homo sapiens, MCF7; for viability at 1.25 µM: MCF-7, 1.25 µM; for viability at 1.25 µM / viability at 2.5 µM / viability at 5 µM / viability at 10 µM / viability at 20 µM / viability at 40 µM / viability at 80 µM / viability at 160 µM: Table S2; for viability at 2.5 µM: MCF-7, 2.5 µM; for viability at 5 µM: MCF-7, 5 µM; for viability at 10 µM: MCF-7, 10 µM; for viability at 20 µM: MCF-7, 20 µM; for viability at 40 µM: MCF-7, 40 µM; for viability at 80 µM: MCF-7, 80 µM; for viability at 160 µM: MCF-7, 160 µM; for IC50: MTT, 24 h treatment, mean of three experiments ± SEM, read-out: IC50 (µM) MCF-7
Procedure: as §1

EGFR = biological target: T1, EGFR (Homo sapiens, UniProt P00533); assay: Kinase-Glo Plus luminescence kinase inhibition assay, EGFR; type: biochemical; conditions: 10 µM ATP, 30 °C, 40 min; mean ± SEM
T1 construct: purchased BPS Bioscience 40721
T1 sequence (P00533 25-1210): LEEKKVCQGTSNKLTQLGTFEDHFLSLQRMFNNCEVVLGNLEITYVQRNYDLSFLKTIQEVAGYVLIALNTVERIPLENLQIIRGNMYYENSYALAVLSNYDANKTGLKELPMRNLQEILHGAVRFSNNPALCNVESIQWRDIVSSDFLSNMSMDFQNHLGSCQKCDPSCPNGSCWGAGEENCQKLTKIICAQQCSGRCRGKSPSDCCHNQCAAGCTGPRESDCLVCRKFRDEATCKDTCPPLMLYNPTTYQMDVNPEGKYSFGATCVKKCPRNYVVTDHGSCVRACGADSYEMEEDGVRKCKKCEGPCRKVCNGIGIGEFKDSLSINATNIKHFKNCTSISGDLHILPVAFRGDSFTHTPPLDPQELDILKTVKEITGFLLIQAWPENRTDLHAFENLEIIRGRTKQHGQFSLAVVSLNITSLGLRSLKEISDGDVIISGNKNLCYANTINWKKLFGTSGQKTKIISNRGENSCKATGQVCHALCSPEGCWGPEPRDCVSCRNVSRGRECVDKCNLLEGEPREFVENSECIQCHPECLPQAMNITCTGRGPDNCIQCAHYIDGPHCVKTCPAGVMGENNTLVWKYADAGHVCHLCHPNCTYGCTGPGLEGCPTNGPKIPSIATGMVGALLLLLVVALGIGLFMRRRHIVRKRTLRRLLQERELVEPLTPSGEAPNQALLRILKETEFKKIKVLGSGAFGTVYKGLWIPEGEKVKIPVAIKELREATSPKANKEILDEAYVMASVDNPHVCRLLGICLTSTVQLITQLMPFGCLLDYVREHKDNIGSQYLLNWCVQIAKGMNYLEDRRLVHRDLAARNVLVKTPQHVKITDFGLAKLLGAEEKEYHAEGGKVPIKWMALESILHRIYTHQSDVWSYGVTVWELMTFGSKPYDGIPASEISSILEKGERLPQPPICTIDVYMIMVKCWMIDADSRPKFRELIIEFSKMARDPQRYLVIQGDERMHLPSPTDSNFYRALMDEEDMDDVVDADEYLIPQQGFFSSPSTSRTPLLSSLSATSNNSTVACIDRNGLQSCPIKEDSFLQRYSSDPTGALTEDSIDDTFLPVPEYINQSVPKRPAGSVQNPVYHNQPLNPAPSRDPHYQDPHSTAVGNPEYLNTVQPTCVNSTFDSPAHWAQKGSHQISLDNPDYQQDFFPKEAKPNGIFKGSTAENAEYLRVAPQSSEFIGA
Procedure: (§2) The enzyme inhibition assay for the tested molecules was performed at BPS Bioscience Corporation, San Diego, CA, USA. The following materials served as the enzyme sources, Poly (Glu, Tyr) sodium salt (4:1, Glu:Tyr) (Sigma#P7244) served as the standardized substrate, and the Kinase-Glo Plus Luminescence kinase assay kit (Promega # V3772) was used. […] Glo Plus luminescence kinase assay kits. The assays were performed using Kinase-Glo Plus luminescence (Promega Corporation, Madison, WI, USA).
(§3) The tested molecules 9, 20, and indurbin were diluted to 100 µL in DMSO (10%), and 5 µL of the solution was added to a 50-µL enzyme reaction until the final concentration of DMSO was 1% in all of reactions. The enzymatic reactions were conducted at 30 °C for 40 min. The reaction mixture contained enzyme substrate and respective kinases. After the enzymatic reaction, 50 µL of enzyme-Glo Plus luminescence […] assay solution (Promega) was added to each reaction, and the plate was incubated for 5 min at room temperature. The luminescence signal was measured using a BioTek Synergy 2 microplate reader. The luminescence data were analyzed using the computer software GraphPad Prism. The difference between luminescence intensities in the absence of enzyme (Lut) and in the presence of enzyme (Luc) was defined as 100% activity (Lut − Luc). […] The IC50 value was determined using GraphPad Prism software. […]
(§4) Glo Plus luminescence kinase assay kits were used in these assays. […] The assay measures kinase activity by quantitating the amount of ATP remaining in the solution following kinase reaction. […] After the enzymatic reaction, 50 µL of Kinase-Glo Plus Luminescence kinase assay solution (Promega) was added to each reaction, and the plate was incubated for 5 min at room temperature. The luminescence signal was measured using a BioTek Synergy 2 microplate reader. […] The luminescence data were analyzed using the Graphpad Prism software.

VEGFR-2 = biological target: T2, VEGFR-2 (Homo sapiens, UniProt P35968); assay: Kinase-Glo Plus luminescence kinase inhibition assay, VEGFR-2; type: biochemical; conditions: 10 µM ATP, 30 °C, 40 min; mean ± SEM
T2 construct: purchased BPS Bioscience 40301
T2 sequence (P35968 20-1356): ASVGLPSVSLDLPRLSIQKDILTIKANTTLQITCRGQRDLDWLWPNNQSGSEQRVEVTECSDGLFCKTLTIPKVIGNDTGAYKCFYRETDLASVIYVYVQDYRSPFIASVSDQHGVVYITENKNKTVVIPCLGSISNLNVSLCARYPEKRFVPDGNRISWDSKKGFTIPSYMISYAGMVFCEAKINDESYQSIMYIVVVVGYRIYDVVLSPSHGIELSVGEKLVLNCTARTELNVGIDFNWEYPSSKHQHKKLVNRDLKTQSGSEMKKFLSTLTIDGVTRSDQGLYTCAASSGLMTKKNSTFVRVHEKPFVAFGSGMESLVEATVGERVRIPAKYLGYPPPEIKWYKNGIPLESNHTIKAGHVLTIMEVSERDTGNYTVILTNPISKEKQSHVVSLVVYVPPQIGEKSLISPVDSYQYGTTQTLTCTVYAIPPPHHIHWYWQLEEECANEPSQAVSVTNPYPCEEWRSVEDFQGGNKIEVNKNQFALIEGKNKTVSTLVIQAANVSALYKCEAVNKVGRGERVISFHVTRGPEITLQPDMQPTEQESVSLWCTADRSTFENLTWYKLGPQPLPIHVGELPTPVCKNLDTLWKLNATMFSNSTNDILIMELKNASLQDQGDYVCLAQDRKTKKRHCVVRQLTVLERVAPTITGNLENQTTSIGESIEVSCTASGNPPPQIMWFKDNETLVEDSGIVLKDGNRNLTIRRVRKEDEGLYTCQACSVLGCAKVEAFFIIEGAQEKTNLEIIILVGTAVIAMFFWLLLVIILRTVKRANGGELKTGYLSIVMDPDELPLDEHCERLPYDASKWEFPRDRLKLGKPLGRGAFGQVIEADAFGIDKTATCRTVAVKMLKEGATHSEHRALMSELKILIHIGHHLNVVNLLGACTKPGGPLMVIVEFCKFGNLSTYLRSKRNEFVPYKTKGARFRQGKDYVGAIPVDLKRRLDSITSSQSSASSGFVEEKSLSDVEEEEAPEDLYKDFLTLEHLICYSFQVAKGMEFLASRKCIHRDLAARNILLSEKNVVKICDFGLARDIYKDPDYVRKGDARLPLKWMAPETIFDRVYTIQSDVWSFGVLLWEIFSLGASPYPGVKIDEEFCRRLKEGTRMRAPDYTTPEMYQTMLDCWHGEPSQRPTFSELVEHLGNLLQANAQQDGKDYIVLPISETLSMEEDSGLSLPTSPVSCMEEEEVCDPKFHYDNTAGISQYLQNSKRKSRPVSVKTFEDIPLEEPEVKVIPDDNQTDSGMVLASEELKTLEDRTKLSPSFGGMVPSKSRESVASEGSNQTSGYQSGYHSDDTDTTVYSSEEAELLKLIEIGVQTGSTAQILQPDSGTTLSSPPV
Procedure: as §2, §3, §4

CDK-2 = biological target: T3, CDK-2 (Homo sapiens, UniProt P24941); assay: Kinase-Glo Plus luminescence kinase inhibition assay, CDK-2; type: biochemical; conditions: 10 µM ATP, 30 °C, 40 min; mean ± SEM
T3 construct: purchased BPS Bioscience 41101
Procedure: as §2
The tested molecules 9, 20, and indurbin were diluted to 100 µL in DMSO (10%), and 5 µL of the solution was added to a 50-µL enzyme reaction until the final concentration of DMSO was 1% in all of reactions. The enzymatic reactions were conducted at 30 °C for 40 min. The reaction mixture contained enzyme substrate and respective kinases. After the enzymatic reaction, 50 µL of enzyme-Glo Plus luminescence […] assay solution (Promega) was added to each reaction, and the plate was incubated for 5 min at room temperature. The luminescence signal was measured using a BioTek Synergy 2 microplate reader. The luminescence data were analyzed using the computer software GraphPad Prism. The difference between luminescence intensities in the absence of enzyme (Lut) and in the presence of enzyme (Luc) was defined as 100% activity (Lut − Luc). The values of enzyme activity percentages versus five concentrations of the small molecule were then plotted using a non-linear regression analysis of the sigmoidal dose–response curve. The IC50 value was determined using GraphPad Prism software. All experiments were repeated three times (Table S3).
Glo Plus luminescence kinase assay kits were used in these assays. The assay was done at Bioscience Laboratory BPS, California, USA. The assay measures kinase activity by quantitating the amount of ATP remaining in the solution following kinase reaction. The luminescent signal from the assay was correlated with the amount of ATP present and inversely correlated with kinase activity. […] All of the enzymatic reactions were conducted at 30 °C for 40 min. The reaction mixture contained 40 mM Tris, pH 7.4, 10 mM MgCl2, 0.1 mg/mL BSA, 1 mM DTT, 10 µM ATP, Kinase substrate, and VEGFR-2, EFGR, CDK-2 and CDK-4 enzymes. After the enzymatic reaction, 50 µL of Kinase-Glo Plus Luminescence kinase assay solution (Promega) was added to each reaction, and the plate was incubated for 5 min at room temperature. The luminescence signal was measured using a BioTek Synergy 2 microplate reader. Kinase activity assays were performed in triplicate for each concentration. The luminescence data were analyzed using the Graphpad Prism software.

CDK-4 = biological target: T4, CDK-4 (Homo sapiens, UniProt P11802); assay: Kinase-Glo Plus luminescence kinase inhibition assay, CDK-4; type: biochemical; conditions: 10 µM ATP, 30 °C, 40 min; mean ± SEM
T4 construct: purchased BPS Bioscience 79674
T4 sequence (P11802 whole entry): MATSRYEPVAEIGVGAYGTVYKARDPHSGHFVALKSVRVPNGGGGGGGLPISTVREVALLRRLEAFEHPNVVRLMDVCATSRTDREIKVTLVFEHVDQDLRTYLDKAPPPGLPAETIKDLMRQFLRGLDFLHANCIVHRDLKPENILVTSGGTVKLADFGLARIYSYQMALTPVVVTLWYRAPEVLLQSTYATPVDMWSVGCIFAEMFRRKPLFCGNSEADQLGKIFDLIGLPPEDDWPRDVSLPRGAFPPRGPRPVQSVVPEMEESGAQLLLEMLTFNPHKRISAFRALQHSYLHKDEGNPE
T4 sequence (P30281 whole entry partner): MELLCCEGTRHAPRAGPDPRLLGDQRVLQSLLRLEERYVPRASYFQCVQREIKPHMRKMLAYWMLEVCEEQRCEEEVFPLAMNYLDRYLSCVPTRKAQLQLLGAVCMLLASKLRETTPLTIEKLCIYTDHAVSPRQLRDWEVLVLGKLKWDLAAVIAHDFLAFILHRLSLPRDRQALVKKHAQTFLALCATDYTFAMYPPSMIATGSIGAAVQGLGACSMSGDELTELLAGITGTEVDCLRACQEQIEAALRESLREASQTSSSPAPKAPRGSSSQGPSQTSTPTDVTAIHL
Procedure: as §2, §3, §4

SMILES: O=C1Nc2ccc([N+](=O)[O-])cc2C1=Nc1ccc(-c2nc3ccccc3c(=O)[nH]2)cc1 [Compound 22, 2-[4-(5-Nitro-2-oxo-1,2-dihydro-indol-3-ylideneamino)-phenyl]-3H-quinazolin-4-one]
- viability at 1.25 µM (HepG-2 cells): 79.2 ± 7.2%
- viability at 2.5 µM (HepG-2 cells): 73.3 ± 6.5%
- viability at 5 µM (HepG-2 cells): 63 ± 5.9%
- viability at 10 µM (HepG-2 cells): 48.5 ± 4.1%
- viability at 20 µM (HepG-2 cells): 38 ± 3.8%
- viability at 40 µM (HepG-2 cells): 26.1 ± 2.3%
- viability at 80 µM (HepG-2 cells): 8.22 ± 0.5%
- viability at 160 µM (HepG-2 cells): 4.17 ± 0.2%
- IC50 (HepG-2 cells): 35.8 ± 2 µM
- viability at 1.25 µM (MCF-7 cells): 109 ± 8%
- viability at 2.5 µM (MCF-7 cells): 99.6 ± 7.4%
- viability at 5 µM (MCF-7 cells): 95.3 ± 5.9%
- viability at 10 µM (MCF-7 cells): 79.1 ± 5.1%
- viability at 20 µM (MCF-7 cells): 63.6 ± 3.8%
- viability at 40 µM (MCF-7 cells): 49.9 ± 3.3%
- viability at 80 µM (MCF-7 cells): 23.5 ± 2.5%
- viability at 160 µM (MCF-7 cells): 12.9 ± 1.3%
- IC50 (MCF-7 cells): 14.9 ± 0.66 µM

SMILES: Cc1ccc2c(c1)C(=Nc1ccc(-c3nc4ccccc4c(=O)[nH]3)cc1)C(=O)N2 [Compound 23, 2-[4-(5-Methyl-2-oxo-1,2-dihydro-indol-3-ylideneamino)-phenyl]-3H-quinazolin-4-one]
- viability at 1.25 µM (HepG-2 cells): 81.5 ± 7.5%
- viability at 2.5 µM (HepG-2 cells): 75.3 ± 6.8%
- viability at 5 µM (HepG-2 cells): 64.8 ± 6%
- viability at 10 µM (HepG-2 cells): 50.2 ± 4.4%
- viability at 20 µM (HepG-2 cells): 39.1 ± 3.6%
- viability at 40 µM (HepG-2 cells): 28.7 ± 2.6%
- viability at 80 µM (HepG-2 cells): 9.5 ± 0.6%
- viability at 160 µM (HepG-2 cells): 4.5 ± 0.3%
- IC50 (HepG-2 cells): 38.4 ± 2.71 µM
- viability at 1.25 µM (MCF-7 cells): 101 ± 7.9%
- viability at 2.5 µM (MCF-7 cells): 91.5 ± 6.5%
- viability at 5 µM (MCF-7 cells): 78.8 ± 6.4%
- viability at 10 µM (MCF-7 cells): 65.8 ± 5.6%
- viability at 20 µM (MCF-7 cells): 40.9 ± 4.6%
- viability at 40 µM (MCF-7 cells): 26.9 ± 3%
- viability at 80 µM (MCF-7 cells): 12 ± 1.3%
- viability at 160 µM (MCF-7 cells): 12 ± 1.6%
- IC50 (MCF-7 cells): 15.3 ± 0.23 µM

SMILES: COc1ccc2c(c1)C(=Nc1ccc(-c3nc4ccccc4c(=O)[nH]3)cc1)C(=O)N2 [Compound 24, 2-[4-(5-Methoxy-2-oxo-1,2-dihydro-indol-3-ylideneamino)-phenyl]-3H-quinazolin-4-one]
- viability at 1.25 µM (HepG-2 cells): 99.4 ± 8.2%
- viability at 2.5 µM (HepG-2 cells): 95.5 ± 7.3%
- viability at 5 µM (HepG-2 cells): 88.5 ± 7%
- viability at 10 µM (HepG-2 cells): 79.6 ± 6.9%
- viability at 20 µM (HepG-2 cells): 62.1 ± 5.7%
- viability at 40 µM (HepG-2 cells): 49.5 ± 3.6%
- viability at 80 µM (HepG-2 cells): 23.9 ± 2.4%
- viability at 160 µM (HepG-2 cells): 10.4 ± 1.1%
- IC50 (HepG-2 cells): 32.7 ± 2.93 µM
- viability at 1.25 µM (MCF-7 cells): 104 ± 8.4%
- viability at 2.5 µM (MCF-7 cells): 97.9 ± 7.7%
- viability at 5 µM (MCF-7 cells): 90.8 ± 7%
- viability at 10 µM (MCF-7 cells): 80 ± 6.9%
- viability at 20 µM (MCF-7 cells): 61.3 ± 4.7%
- viability at 40 µM (MCF-7 cells): 29.6 ± 2.6%
- viability at 80 µM (MCF-7 cells): 11.1 ± 1.4%
- viability at 160 µM (MCF-7 cells): 5.92 ± 0.5%
- IC50 (MCF-7 cells): 18.5 ± 0.96 µM

- IC50 (EGFR): 175 ± 18.3 nM
- IC50 (VEGFR-2): 126 ± 20 nM
- IC50 (CDK-2): 45.6 ± 2.24 nM
- IC50 (CDK-4): 23.6 ± 2.15 nM
SMILES: O=C1Nc2ccccc2/C1=C1/Nc2ccccc2C1=O [Ind, Indirubin, reference compound]
- IC50 (HepG-2 cells): 6.92 ± 0.65 µM
- IC50 (MCF-7 cells): 6.12 ± 0.35 µM
